Reference: US10882860B2, “Treatment of osteoarthritis” (Samumed, LLC, priority 2015, dated 2021)
Marks after values point to notes of the source that are not given here.

Assays:
[1] = system: moderate-to-severe symptomatic knee OA subjects; assay: Phase 1 clinical study: biomarkers (COMP, βCTX, P1NP); type: in vivo, human
Source text: (§1) The study was a first-in-human, multicenter, 24-week, placebo-controlled, single-dose, dose-escalation safety study of a Wnt pathway inhibitor in subjects suffering from moderate to severe symptomatic knee OA. The sample size was 20 subjects (randomized 4:1, 16 active: 4 placebo) per dosing cohort. Inclusion criteria included: Age, 50-75 years; Western Ontario and McMaster Universities Arthritis Index (WOMAC) Total score, 36-72 (out of 96); Kellgren-Lawrence grade, 2 or 3; and a willingness to omit pain medication for 24 hours prior to pain assessments. Exclusion criteria included: BMI>40; and treatment with IA steroids within 2 months or HA derivatives within 6 months prior to injection. A full list of the inclusion and exclusion criteria for this study can be found on clinicaltrials.gov (NCT02095548).
(§2) The dosing sequence included suspension compositions of either 0.03 mg, 0.07 mg, or 0.23 mg of the compound of Formula (I) (Form 1) per 2 mL injection in a vehicle containing 0.5% carboxymethylcellulose sodium and 0.05% polysorbate 80 in pH 7.4 phosphate buffered saline. The placebo contained only the diluent of 0.5% carboxymethylcellulose sodium and 0.05% polysorbate 80 in pH 7.4 phosphate buffered saline. The subjects were given a single, intra-articular injection in the target knee on Treatment Day 1 and participated in a follow-up period of 24 weeks.
(§3) Safety, pharmacokinetics (PK), biomarker, and efficacy data were collected at baseline and during the 24-week follow-up period. Safety data included adverse events (AEs), concomitant medications, clinical laboratory sampling, medical history, vital signs, ECGs, hip bone density (DXA) analysis, qCT of the target knee, and evaluation of bone edema via MM. For PK data, samples were collected 0, 4, and 24 hours post dose, and at Weeks 4 and 12. Biomarker data included data for procollagen type 1 N-propeptide (P1NP), beta C-terminal telopeptide of type 1 collagen (βCTX), and cartilage oligomeric matrix protein (COMP). Efficacy data included measurements of WOMAC Total score, WOMAC Function and Pain subscores, pain VAS, Physician Global Assessment of Disease Activity, MM, and radiographs. Efficacy assessments were used to determine the percentage of OMERACT-OARSI “strict” responders. Exploratory analyses of efficacy outcomes were conducted using a baseline-adjusted repeated measures analysis of covariance (ANCOVA) in the Intention-to-Treat (ITT) population. The sponsor was unblinded after Week 12 for each cohort; site investigators remained blinded. All AEs reported in this study were […]. Investigator opinion regarding whether AEs were related to the compound of Formula (I) was also collected for informational purposes.

[2] = Phase 1 clinical study: pharmacokinetics; type: in vivo; settings: human; cohorts 1, 2, and 3 (0.03, 0.07, 0.23 mg); 0, 4, 24 hours, Weeks 4 and 12; BQL
Source text: as §1
The dosing sequence included suspension compositions of either 0.03 mg, 0.07 mg, or 0.23 mg of the compound of Formula (I) (Form 1) per 2 mL injection in a vehicle containing 0.5% carboxymethylcellulose sodium and 0.05% polysorbate 80 in pH 7.4 phosphate buffered saline. […]
PK samples were collected at 0, 4, and 24 hours post dose, and at Weeks 4 and 12. All subjects in cohorts 1, 2, and 3 had levels below limits of quantitation (BQL<0.100 ng/mL) at all recorded time points.

[3] = Competitive slurry experiments between polymorph forms (thermodynamic stability); type: physicochemical; settings: competitive slurry of mixed forms
Experimental: In order to find out the thermodynamic stability between the different forms, several competitive slurry experiments were carried out. Form 1, Form 2, Form 2*, Form 3, Form 4, Form 4*, Form 4**, Form 5, Form 7, Form 8, Form 9, Form 10, Form 11, Form 11*, and Form 13 (10 mg for each) was mixed and slurried in 2 mL of solvent at both RT and 50° C. The solids were slurried for 3-5 days and then analyzed by XRD.
In order to find out the thermodynamic stability between Form 13 and Form 9, several competitive slurry experiments were carried out. 15 mg of Form 1, Form 9 and Form 13 solid were mixed in 1 mL of toluene, IPAc, and n-butyl acetate, and slurried for 3 days at RT and 50° C.
The residual solid was analyzed by XRD.

[4] = system: moderate-to-severe symptomatic knee OA subjects; assay: Phase 1 clinical study: efficacy (WOMAC, Physician Global Assessment, strict OARSI responders); type: in vivo, human; settings: for decrease in median WOMAC total score from baseline: FIG. 24B; for decrease in mean WOMAC total score [0-96] from baseline: FIG. 24A
Source text: as §1, §2, §3
Strict responders were classified by having either a WOMAC Function subscore improvement of ≥50% with a corresponding Function score improvement of ≥20 points (scaled to [0-100]), or a WOMAC Pain subscore improvement of ≥50% with a corresponding Pain score improvement of ≥20 points (scaled to [0-100]).

## CC(C)CC(=O)Nc1cncc(-c2ccc3[nH]nc(-c4nc5c(-c6cccc(F)c6)cncc5[nH]4)c3c2)c1 [compound of Formula (I)]
[1]; 0.03 mg cohort
  change in COMP: no significant changes
[1]; 0.07 mg cohort, Week 12, P=0.001
  reduction in cartilage oligomeric matrix protein (COMP): 130 ng/mL
[1]; 0.23 mg cohort
  change in COMP: no significant changes
[1]; any treatment group
  change in βCTX or P1NP: no significant changes
[2]
  plasma level (PK samples): < 0.100 ng/mL
[3]; Acetone, 50° C.
  Form after 3 days; dry: Form 2*/Form 2*
  Form after 3 days; wet: Form 2*/Form 2*
  Form after 5 days; dry: Form 2*/Form 2*
  Form after 5 days; wet: Form 2*/Form 2*
[3]; Acetone, RT
  Form after 3 days; dry: Form 2*/Form 2*
  Form after 3 days; wet: Form 2*/Form 2*
  Form after 5 days; dry: Form 2*/Form 2*
  Form after 5 days; wet: Form 2*/Form 2*
[3]; EA, 50° C.
  Form after 3 days; dry: Form 4/Form 4
  Form after 3 days; wet: Form 4/Form 4
  Form after 5 days; dry: Form 4*/Form 4*
  Form after 5 days; wet: Form 4*/Form 4*
[3]; EA, RT
  Form after 3 days; dry: Form 4/Form 4
  Form after 3 days; wet: Form 4/Form 4
  Form after 5 days; dry: Form 4/Form 4
  Form after 5 days; wet: Form 4/Form 4
[3]; EtOH, 50° C.
  Form after 3 days; dry: Form 2*/Form 2*
  Form after 3 days; wet: Form 2*/Form 2*
  Form after 5 days; dry: Form 2*/Form 2*
  Form after 5 days; wet: Form 2*/Form 2*
[3]; EtOH, RT
  Form after 3 days; dry: Form 2*/Form 2*
  Form after 3 days; wet: Form 2*/Form 2*
  Form after 5 days; dry: Form 2*/Form 2*
  Form after 5 days; wet: Form 2*/Form 2*
[3]; MeOH, 50° C.
  Form after 3 days; dry: Form 2*/Form 2*
  Form after 3 days; wet: Form 2*/Form 2*
  Form after 5 days; dry: Form 2*/Form 2*
  Form after 5 days; wet: Form 2*/Form 2*
[3]; MeOH, RT
  Form after 3 days; dry: Form 2*/Form 2*
  Form after 3 days; wet: Form 2*/Form 2*
  Form after 5 days; dry: Form 2*/Form 2*
  Form after 5 days; wet: Form 2*/Form 2*
[3]; water, 50° C.
  Form after 3 days; dry: Form 13/Form 13
  Form after 3 days; wet: Form 13/Form 13
  Form after 5 days; dry: Form 13/Form 13
  Form after 5 days; wet: Form 13/Form 13
[3]; water, RT
  Form after 3 days; dry: Form 13/Form 13
  Form after 3 days; wet: Form 13/Form 13
  Form after 5 days; dry: Form l & Form 13
  Form after 5 days; wet: Form 13
[4]; 0.03 mg cohort, N 17
  WOMAC function [0-68], Week 12 Actual [Mean (SD)]: 20.3
  WOMAC function [0-68], Week 12 Change from baseline [Mean (SD)]: −18.4
  WOMAC pain [0-20], Week 12 Actual [Mean (SD)]: 6.3
  WOMAC pain [0-20], Week 12 Change from baseline [Mean (SD)]: −4.4
[4]; 0.03 mg cohort
  decrease in median WOMAC total score from baseline: greater than 25
[4]; 0.03 mg cohort, FIG. 25B
  median decrease in physician global assessment from baseline: about 48
[4]; 0.07 mg cohort, N 16
  WOMAC function [0-68], Week 12 Actual [Mean (SD)]: 18.4
  WOMAC function [0-68], Week 12 Change from baseline [Mean (SD)]: −19.2
  WOMAC pain [0-20], Week 12 Actual [Mean (SD)]: 5.3
  WOMAC pain [0-20], Week 12 Change from baseline [Mean (SD)]: −5.6
[4]; 0.07 mg cohort
  decrease in mean WOMAC total score [0-96] from baseline: about 27
  decrease in median WOMAC total score from baseline: greater than 25
[4]; 0.07 mg cohort, Week 12, P=0.081
  odds ratio (OR) of strict OARSI response vs placebo: 4.2
[4]; 0.07 mg cohort, Week 12, placebo 42%
  percentage of strict OARSI responders: 75%
[4]; 0.23 mg cohort, N 16
  WOMAC function [0-68], Week 12 Actual [Mean (SD)]: 22.6
  WOMAC function [0-68], Week 12 Change from baseline [Mean (SD)]: −17.8
  WOMAC pain [0-20], Week 12 Actual [Mean (SD)]: 5.8
  WOMAC pain [0-20], Week 12 Change from baseline [Mean (SD)]: −5.7
[4]; all cohorts (0.03, 0.07, 0.23 mg)
  decrease in mean WOMAC total score [0-96] from baseline: ≥ 23
[4]; all cohorts (0.03, 0.07, 0.23 mg), FIG. 25A
  decrease in mean physician global assessment score [0-100] from baseline: ≥ 30
